Results from patent US20260356851A1, “TRICYCLIC COMPOUNDS AND USES THEREOF” (HUTCHMED LIMITED, priority 2023, published 2026).

Assays:
Assay type in all cases: cell-based
[1] = target: T1, pERK1/2 (Thr202/Tyr204), PANC-1 (KRAS G121D) (Homo sapiens, UniProt P01116, G12D); experiment: Assay of intracellular pERK1/2 (Thr202/Tyr204) phosphorylation in PANC-1 cells (KRAS G12D); conditions: pERK1/2, 2 days, read-out: PANC-1 (KRAS G12D) IC50
T1 construct: pERK1/2 HTRF read-out
Method in brief: (§1)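 Cells (10000-12000/well) exposed to 3-fold compound dilutions for 2 days at 37 °C, then lysed; pERK1/2 (Thr202/Tyr204) measured by HTRF with d2 and cryptate antibodies, 665/615 nm ratio.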

[2] = target: T2, pERK1/2 (Thr202/Tyr204), NCI-1H358 (KRAS G12C) (Homo sapiens, UniProt P01116, G12C); experiment: Assay of intracellular pERK1/2 (Thr202/Tyr204) phosphorylation in NCI-H358 cells (KRAS G12C); conditions: pERK1/2, 2 days, read-out: NCI-H358 (KRAS G12C) IC50
T2 construct: pERK1/2 HTRF read-out
Method in brief: as §1

[3] = target: T3, pERK1/2 (Thr202/Tyr204), NCI-1H441 (KRAS G12V) (Homo sapiens, UniProt P01116, G12V); experiment: Assay of intracellular pERK1/2 (Thr202/Tyr204) phosphorylation in NCI-H441 cells (KRAS G12V); conditions: pERK1/2, 2 days, read-out: NCI-H441 (KRAS G12V) IC50
T3 construct: pERK1/2 HTRF read-out
Method in brief: as §1

T2 sequence (P01116 1-188 isoform P01116-2 G12C): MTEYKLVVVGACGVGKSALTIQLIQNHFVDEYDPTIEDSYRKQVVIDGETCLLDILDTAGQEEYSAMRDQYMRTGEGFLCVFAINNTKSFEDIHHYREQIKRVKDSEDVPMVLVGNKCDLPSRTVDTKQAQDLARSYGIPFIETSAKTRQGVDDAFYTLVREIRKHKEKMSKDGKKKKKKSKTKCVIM
T1 sequence (P01116 1-188 isoform P01116-2 G12D): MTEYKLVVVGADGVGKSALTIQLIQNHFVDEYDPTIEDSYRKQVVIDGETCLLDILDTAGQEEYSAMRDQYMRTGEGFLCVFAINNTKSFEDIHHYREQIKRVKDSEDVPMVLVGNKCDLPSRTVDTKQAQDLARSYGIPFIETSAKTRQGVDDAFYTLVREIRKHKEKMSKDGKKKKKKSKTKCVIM
T3 sequence (P01116 1-188 isoform P01116-2 G12V): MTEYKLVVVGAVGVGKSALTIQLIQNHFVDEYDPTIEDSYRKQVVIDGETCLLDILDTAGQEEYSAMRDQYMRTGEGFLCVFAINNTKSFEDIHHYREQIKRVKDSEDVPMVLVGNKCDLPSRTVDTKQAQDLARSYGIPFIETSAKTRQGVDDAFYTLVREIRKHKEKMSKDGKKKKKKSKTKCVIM

Structure (SMILES)	IC50 [1]	IC50 [2]	IC50 [3]
Cc1cc(N)cc(-c2nc3c4c(nc(OC[C@@H]5C[C@@H](F)CN5C)nc4c2F)N(C(C)c2cccnc2N)CCO3)c1C(F)(F)F (stereo partly drawn) [Compound 73]	31 nM	0.9 nM	2 nM
CC(c1cccnc1N)N1CCOc2nc(-c3cc(N)cc(F)c3C(F)(F)F)c(F)c3nc(OC[C@@]45CCCN4C[C@H](F)C5)nc1c23 (stereo partly drawn) [Compound 82]	15 nM	0.8 nM	0.8 nM
Cc1nc(N)cc(-c2nc3c4c(nc(OC[C@@]56CCCN5C[C@H](F)C6)nc4c2F)N(C(C)c2cccnc2N)CCO3)c1C(F)(F)F (stereo partly drawn) [Compound 83]	29 nM	0.6 nM	3 nM
Cc1cc(N)cc(-c2nc3c4c(nc(OCC56CCCN5CCC6)nc4c2F)N(C(C)c2cccnc2N)CCO3)c1C(F)(F)F (stereo not drawn) [Compound 87]	36 nM	3 nM	6 nM
C#Cc1c(Cl)cc(N)cc1-c1nc2c3c(nc(OC[C@@H]4CCCN4C)nc3c1F)N(C(C)c1cccnc1N)CCO2 (stereo partly drawn) [Compound 94]	> 100 nM	46 nM	100 nM
Cc1nc(N)cc(-c2nc3c4c(nc(OC[C@@H]5CCCN5C)nc4c2F)N(C(C)c2cccnc2N)CCO3)c1C(F)(F)F (stereo partly drawn) [Compound 97]	> 100 nM	16 nM	36 nM
[2H]C([2H])(Oc1nc2c3c(nc(-c4cc(N)c(F)c(C)c4C(F)(F)F)c(F)c3n1)OCCN2C(C)c1cccnc1N)[C@@H]1CCC([2H])([2H])N1C([2H])([2H])[2H] (stereo partly drawn) [Compound 104]	24 nM	2 nM	3 nM
Cc1cc(N)cc(-c2nc3c4c(nc(OC[C@@H]5CCCN5CCO)nc4c2F)N(C(C)c2cccnc2N)CCO3)c1C(F)(F)F (stereo partly drawn) [Compound 108]	> 100 nM	12 nM	26 nM
[2H]C([2H])([2H])N1CCC[C@H]1COc1nc2c3c(nc(-c4cc(N)cc(Cl)c4C(F)(F)F)c(F)c3n1)OCCN2C(C)c1cccnc1N (stereo partly drawn) [Compound 111]	21 nM	1 nM	1 nM
[2H]C([2H])(Oc1nc2c3c(nc(-c4cc(N)cc(Cl)c4C(F)(F)F)c(F)c3n1)OCCN2C(C)c1cccnc1N)[C@@H]1CCC([2H])([2H])N1C([2H])([2H])[2H] (stereo partly drawn) [Compound 112]	34 nM	1 nM	2 nM
CCN1CCC[C@H]1COc1nc2c3c(nc(-c4cc(N)cc(C)c4C(F)(F)F)c(F)c3n1)OCCN2C(C)c1cccnc1N (stereo partly drawn) [Compound 114]	19 nM	0.6 nM	0.9 nM
Cc1cc(N)cc(-c2nc3c4c(nc(OC[C@@]56CCCN5C[C@H](F)C6)nc4c2F)N(C(C)c2cccnn2)CCO3)c1C(F)(F)F (stereo partly drawn) [Compound 121]	> 100 nM	> 100 nM	98 nM
Cc1cc(N)cc(-c2nc3c4c(nc(OC[C@@H]5CCCN5C5COC5)nc4c2F)N(C(C)c2cccnc2N)CCO3)c1C(F)(F)F (stereo partly drawn) [Compound 123]	> 100 nM	2 nM	4 nM
[2H]C([2H])(Oc1nc2c3c(nc(-c4cc(N)ccc4C(F)(F)F)c(F)c3n1)OCCN2C(C)c1cccnc1N)[C@@H]1C[C@@H](F)CN1C([2H])([2H])[2H] (stereo partly drawn) [Compound 126]	> 100 nM	7 nM	31 nM
[2H]C1([2H])CC[C@@]2(C([2H])([2H])Oc3nc4c5c(nc(-c6cc(N)ccc6C(F)(F)F)c(F)c5n3)OCCN4C(C)c3cccnc3N)C[C@@H](F)CN12 (stereo partly drawn) [Compound 129]	26 nM	0.9 nM	2 nM
CC(c1cccnc1N)N1CCOc2nc(-c3cc(O)cc(Cl)c3C3CC3)c(F)c3nc(OC[C@@H]4COCCN4C)nc1c23 (stereo partly drawn) [Compound 134]	> 100 nM	31 nM	34 nM
CC(c1cccnc1N)N1CCOc2nc(-c3cc(N)c(F)cc3C(F)(F)F)c(F)c3nc(OC[C@@]45CCCN4C[C@H](F)C5)nc1c23 (stereo partly drawn) [Compound 135]	30 nM	2 nM	3 nM
[2H]C([2H])(Oc1nc2c3c(nc(-c4cc(N)c(F)cc4C(F)(F)F)c(F)c3n1)OCCN2C(C)c1cccnc1N)[C@@H]1C[C@@H](F)CN1C([2H])([2H])[2H] (stereo partly drawn) [Compound 136]	> 100 nM	17 nM	61 nM
CC(c1cccnc1N)N1CCOc2nc(-c3cc(O)cc(Cl)c3C3CC3)c(F)c3nc(OC[C@@H]4CCCCN4C)nc1c23 (stereo partly drawn) [Compound 139]	> 100 nM	91 nM	> 100 nM
[2H]C1([2H])CN(C([2H])(C)c2cccnc2N)c2nc(OC[C@@]34CCCN3C[C@H](F)C4)nc3c(F)c(-c4cc(N)cc(C)c4C(F)(F)F)nc(c23)O1 (stereo partly drawn) [Compound 141]	> 100 nM	0.3 nM	0.7 nM
Cc1cc(N)cc(-c2nc3c4c(nc(OC[C@@]56CCCN5C[C@H](F)C6)nc4c2F)N(C(C)c2cccnc2N)CCO3)c1C1CC1 (stereo partly drawn) [Compound 146]	16 nM	0.8 nM	3 nM
CC(c1cccnc1N)N1CCOc2nc(-c3cc(N)c(F)c(F)c3F)c(F)c3nc(OC[C@@]45CCCN4C[C@H](F)C5)nc1c23 (stereo partly drawn) [Compound 158]	> 100 nM	96 nM	> 100 nM
Cc1cc(O)cc(-c2nc3c4c(nc(OC[C@@]56CCCN5C[C@H](F)C6)nc4c2F)N(C(C)c2cccnc2N)CCO3)c1C1CC1 (stereo partly drawn) [Compound 159]	15 nM	0.6 nM	1 nM
Cc1cc(Nc2nc3c4c(nc(OC[C@@]56CCCN5C[C@H](F)C6)nc4c2F)N(C(C)c2cccnc2N)CCO3)c(F)cc1C(F)(F)F (stereo partly drawn) [Compound 162]	> 100 nM	> 100 nM	> 100 nM
Cc1c(F)c(N)cc(-c2nc3c4c(nc(OC[C@@]56CCCN5C[C@@H](F)C6)nc4c2F)N(C(C)c2cccnc2N)CCO3)c1C(F)(F)F (stereo partly drawn) [Compound 165]	47 nM	1 nM	3 nM
Cc1c(F)c(N)cc(-c2nc3c4c(nc(OC[C@@]56CCCN5CC(F)(F)C6)nc4c2F)N(C(C)c2cccnc2N)CCO3)c1C(F)(F)F (stereo partly drawn) [Compound 171]	27 nM	0.5 nM	2 nM

These reach a lower IC50 [1]. Values come first.

IC50 [1]	IC50 [2]	IC50 [3]	Structure (SMILES)
2 nM	0.4 nM	0.6 nM	[2H]C1([2H])CC[C@@]2(C([2H])([2H])Oc3nc4c5c(nc(-c6cc(N)cc(C)c6C(F)(F)F)c(F)c5n3)OCCN4C(C)c3cccnc3N)C[C@@H](F)CN12 (stereo partly drawn) [Compound 105]
2 nM	0.7 nM	0.8 nM	[2H]C1([2H])CC[C@@]2(C([2H])([2H])Oc3nc4c5c(nc(-c6cc(N)cc(Cl)c6C(F)(F)F)c(F)c5n3)OCCN4C(C)c3cccnc3N)C[C@@H](F)CN12 (stereo partly drawn) [Compound 113]
2 nM	0.3 nM	0.4 nM	[2H]C1([2H])CC[C@@]2(C([2H])([2H])Oc3nc4c5c(nc(-c6cc(N)c(F)c(C)c6C(F)(F)F)c(F)c5n3)OCCN4C(C)c3cccnc3N)C[C@@H](F)CN12 (stereo partly drawn) [Compound 119]
1 nM	0.3 nM	0.4 nM	Cc1c(F)c(N)cc(-c2nc3c4c(nc(OC[C@@]56CCCN5C[C@H](F)C6)nc4c2F)N(C(C)c2cccnc2N)CCO3)c1C(F)(F)F (stereo partly drawn) [Compound 120]
11 nM	0.6 nM	1 nM	[2H]C([2H])(Oc1nc2c3c(nc(-c4cc(N)cc(C)c4C(F)(F)F)c(F)c3n1)OCCN2C(C)c1cccnc1N)[C@@H]1C[C@@H](F)CN1C([2H])([2H])[2H] (stereo partly drawn) [Compound 122]
1 nM	0.3 nM	0.9 nM	[2H]C1([2H])CN(C(C)c2cccnc2N)c2nc(OC[C@@]34CCCN3C[C@H](F)C4)nc3c(F)c(-c4cc(N)cc(C)c4C(F)(F)F)nc(c23)O1 (stereo partly drawn) [Compound 140]
1 nM	0.2 nM	0.3 nM	[2H]C1([2H])CC[C@@]2(COc3nc4c5c(nc(-c6cc(N)c(F)c(C)c6C(F)(F)F)c(F)c5n3)OCCN4C(C)c3cccnc3N)C[C@@]([2H])(F)CN12 (stereo partly drawn) [Compound 148]
7 nM	0.3 nM	0.9 nM	[2H]C([2H])(Oc1nc2c3c(nc(-c4cc(N)c(F)c(C)c4C(F)(F)F)c(F)c3n1)OCCN2C(C)c1cccnc1N)[C@@H]1C[C@@H](F)CN1C([2H])([2H])[2H] (stereo partly drawn) [Compound 149]
1 nM	0.2 nM	0.3 nM	[2H]C1([2H])CC[C@@]2(COc3nc4c5c(nc(-c6cc(N)c(F)c(C)c6C(F)(F)F)c(F)c5n3)OCCN4C(C)c3cccnc3N)C[C@@H](F)CN12 (stereo partly drawn) [Compound 150]
2 nM	0.3 nM	0.5 nM	[2H]C1([2H])CN(C(C)c2cccnc2N)c2nc(OC[C@@]34CCCN3C[C@H](F)C4)nc3c(F)c(-c4cc(N)c(F)c(C)c4C(F)(F)F)nc(c23)O1 (stereo partly drawn) [Compound 157]
6 nM	0.2 nM	0.4 nM	Cc1c(F)c(N)cc(-c2nc3c4c(nc(OC[C@]56CCCN5C[C@@H](F)C6)nc4c2F)N(C(C)c2cccnc2N)CCO3)c1C(F)(F)F (stereo partly drawn) [Compound 163]
3 nM	0.2 nM	0.3 nM	Cc1c(F)c(N)cc(-c2nc3c4c(nc(OC[C@]56CCCN5C[C@H](F)C6)nc4c2F)N(C(C)c2cccnc2N)CCO3)c1C(F)(F)F (stereo partly drawn) [Compound 164]
2 nM	0.2 nM	0.4 nM	CC(c1cccnc1N)N1CCOc2nc(-c3cc(N)c(F)c(Cl)c3C(F)(F)F)c(F)c3nc(OC[C@@]45CCCN4C[C@H](F)C5)nc1c23 (stereo partly drawn) [Compound 168]
